Tested on: MV-4-11 cells
Experiment: Gene expression microarray analysis (Affymetrix PrimeView) and GSEA
Assay type: cell-based, human
Conditions: gene FGFR1OP; ACY-1035 1 mM; LIST F

With `Nc1ccc(-c2cccs2)cc1NC(=O)c1ccc2c(c1)cc(C1CC1)n2CCN1CCOCC1` [ACY-1035] the “RFU, FGFR1OP (ProbeSet 11751329_s_at)” value was 243.91 RFU.

Source: article PMC5218480 (PLoS ONE, 2017)
